In patent US5484803A, “Transcutaneous in vivo activation of photosensitive agents in blood” (priority 1995, dated 1996):

How the values were obtained:
skin = experiment: Skin changes and general behavior after treatment (Example 5 and preceding examples); format: in vivo, mice; conditions: maximum observation period 2 weeks
[1] = tested on: free viruses and virally infected cells; conditions: with red light (400-900 nm); spiked blood products and whole blood from viremic cats; cited from earlier work
mice skin = experiment: Skin photosensitivity tests (skin and behaviour after double treatment); format: in vivo, Balb/c mice
Excerpt: Male Balb/c mice (7-11 weeks old; Charles River, Canada) were used in these studies, unless otherwise specified. Balb/c mice were chosen for the studies because of the lack of pigment in their skin. Shaving and depilation removed the hair very effectively from the entire body except the head. Then, the mouse skin appeared quite transparent. Internal organs, especially dark red organs such as liver and spleen, were visible through the skin. The mice were shaved and depilated with a commercially available depilator (Neet® or Nair®) 5 days before being used in the experiments. Control mice, injected with BPD but not exposed to light, were not shaved. Following injection the mice were kept in the dark for various lengths of time, as described below. Before and after the experiments the mice were kept in an animal facility with 12 hours of light and 12 hours of dark daily. After the experiments, in order to reduce the amount of light reaching the mice, their cages were placed on the lowest shelf with aluminum foil placed above them.
The light box was custom built at a workshop at the University of British Columbia. It was composed of two layers of 14 75 W tungsten-halogen reflector bulbs (General Electric), which illuminated the treatment area from the top and from the bottom. Light was filtered by 1) a set of filters comprising yellow and red plastic films which absorbed most of the light at wavelengths shorter than 600 nm and 2) 15 mm thick water filters which absorbed light above 900 nm. Cooling was provided by a steady flow of cold water in the water filters and by a set of 5 fans. The light intensity was measured by an IL 1350 Photometer (International Light).
The intensity of light delivered by the top and bottom sets of bulbs was not uniform. The bottom set delivered 33-40 mW/cm^2 as measured at floor level of the exposure chamber, while the top set delivered 27-33 mW/cm^2 as measured at the skin surface of the backs of the animals. The range described resulted from inconsistent influence at the horizontal plane of irradiation. In addition, mice moved about during light exposure, so that at various times different parts of their skin received different amounts of light. Therefore, the doses delivered to the surface of mice skin must be approximated and the calculations have been based on an intensity of 30 mW/cm^2.
Six Balb/c mice (22±1 g weight) were prepared as described above. Five mice were injected twice (24 hour interval) with BPD from DMSO stock (not liposomal BPD) and exposed to light 1 hour after the injection. One mouse was not injected but was exposed to light (light-only control). During the first treatment the mice were injected with 15 μg BPD/mouse in 200 μl of PBS. During the second treatment the mice were injected with 20 μg BPD/mouse (0.9 mg/kg). A single mouse was used as a control for both treatments.
Immediately post-injection (on both occasions) the animals were kept for 1 hour in the dark and then were placed in individual plastic containers (9×4×5 cm), which were placed in the light box and exposed to light. The individual mice were removed from the light box at different intervals: 15, 30, 45, 60 and 75 min, respectively. The light doses delivered at the surface of the skin were 27, 54, 81, 108 and 135 J/cm^2, respectively. On the second occasion the same light doses were used; however, mice receiving higher light doses on day 1 received lower doses on day 2. The control mouse was exposed to light for 60 min on both occasions. […]

mice = experiment: Tolerability of light exposure starting 15 min post-injection (lethality); format: in vivo, Balb/c mice
Experimental: In order to determine the level of BPD in plasma during the light treatment, the following experiment was carried out. Fourteen Balb/c mice (22±1 g of weight) were injected with liposomal BPD at 20 μg/mouse (0.9 mg/kg) in 200 μl PBS per mouse. Blood samples were obtained by heart puncture at various time intervals between 15 min and 2 hours post-injection. Exposure to light started at 15 min post-injection for some mice. The BPD concentration in plasma was determined as described above.
At 2 hours post-injection, i.e., at the time point corresponding to the end of 1 hour exposure to light (108 J/cm^2) in the first example, the plasma level of BPD was 2.44 μg/ml. At the beginning of exposure to light, in the same example, the plasma level of BPD was about 4 μg/ml. To further evaluate skin photosensitivity at these low levels, mice were exposed to light at an earlier time post-injection, i.e., at 15 min, when the level of BPD in plasma was 6.32 μg/ml.

Substance: benzoprophyrin derivative monoacid ring A [BPD]
- skin photosensitivity and change in behavior (skin): neither skin photosensitivity nor change in the behavior of animals were observed
- elimination of free viruses and virally infected cells [1]: effective in eliminating both free viruses and virally infected cells
- signs of skin photosensitization (mice skin; 0.9 mg/kg, red light 1 hour after injection, 27 to 135 J/cm^2, two weeks): did not show any signs of skin photosensitization
- gross changes in skin (mice skin; Balb/c, i.e. 15 then 20 μg BPD/mouse (DMSO stock), light 27-135 J/cm^2, immediately post-exposure and two weeks): No gross changes were observed in mice skin
- effect of the same light dose at lower plasma levels (mice skin; as demonstrated in Example 1): apparently harmless
- behaviour / discomfort under the light (mice skin; both days of treatment, 27-135 J/cm^2, except occasional scratching): behaved normally under the light, without any signs of discomfort
- behavioral changes (mice skin; two weeks after double treatment): No behavioral changes were observed
- starting plasma level of BPD lethal to mice (mice; light exposure of about 50 J/cm^2 whole body irradiation, 0.9 mg/kg, 15 min): about 6.5 μg/ml
- discomfort on light exposure (mice; light from 15 min post-injection): almost immediately uncomfortable
- death of mice on light exposure (mice; liposomal BPD 0.9 mg/kg, light from 15 min post-injection, 54 J/cm^2): died after 30 min of exposure
